Results published in PMC5206433 (BioMed Research International, 2016).

Biological target: integrin αIIbβ3 (Homo sapiens, UniProt P05106+P08514)
Assay type: binding

Chain of integrin αIIbβ3 (P08514 32-887): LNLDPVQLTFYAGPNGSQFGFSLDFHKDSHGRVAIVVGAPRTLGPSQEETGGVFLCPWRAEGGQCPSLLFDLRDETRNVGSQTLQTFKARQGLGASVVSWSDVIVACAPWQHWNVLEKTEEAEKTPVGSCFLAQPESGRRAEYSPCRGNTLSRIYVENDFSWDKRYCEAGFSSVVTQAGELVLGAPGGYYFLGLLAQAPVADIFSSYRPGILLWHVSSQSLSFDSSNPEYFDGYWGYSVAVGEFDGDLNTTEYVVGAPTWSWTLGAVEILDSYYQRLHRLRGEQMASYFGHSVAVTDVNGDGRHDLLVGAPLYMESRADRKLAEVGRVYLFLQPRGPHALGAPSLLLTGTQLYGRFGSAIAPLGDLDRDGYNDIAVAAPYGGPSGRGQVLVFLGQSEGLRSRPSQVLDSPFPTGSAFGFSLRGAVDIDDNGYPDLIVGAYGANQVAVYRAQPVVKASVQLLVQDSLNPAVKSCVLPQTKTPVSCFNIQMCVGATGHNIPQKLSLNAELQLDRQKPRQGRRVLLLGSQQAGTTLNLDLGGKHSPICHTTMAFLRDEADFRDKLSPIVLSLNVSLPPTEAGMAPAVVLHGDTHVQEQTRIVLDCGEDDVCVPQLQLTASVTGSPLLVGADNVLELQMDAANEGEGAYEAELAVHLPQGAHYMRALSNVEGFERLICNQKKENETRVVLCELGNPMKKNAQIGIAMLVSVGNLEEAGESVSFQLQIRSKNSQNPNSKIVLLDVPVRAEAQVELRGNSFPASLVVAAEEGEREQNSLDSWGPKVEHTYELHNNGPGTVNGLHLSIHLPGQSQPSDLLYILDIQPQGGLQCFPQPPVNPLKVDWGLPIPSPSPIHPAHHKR
Chain of integrin αIIbβ3 (P08514 891-1039): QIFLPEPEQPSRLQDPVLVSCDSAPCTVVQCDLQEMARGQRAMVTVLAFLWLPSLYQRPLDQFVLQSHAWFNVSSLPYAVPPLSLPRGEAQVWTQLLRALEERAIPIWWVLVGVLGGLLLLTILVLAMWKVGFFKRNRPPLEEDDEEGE
Chain of integrin αIIbβ3 (P05106 27-788): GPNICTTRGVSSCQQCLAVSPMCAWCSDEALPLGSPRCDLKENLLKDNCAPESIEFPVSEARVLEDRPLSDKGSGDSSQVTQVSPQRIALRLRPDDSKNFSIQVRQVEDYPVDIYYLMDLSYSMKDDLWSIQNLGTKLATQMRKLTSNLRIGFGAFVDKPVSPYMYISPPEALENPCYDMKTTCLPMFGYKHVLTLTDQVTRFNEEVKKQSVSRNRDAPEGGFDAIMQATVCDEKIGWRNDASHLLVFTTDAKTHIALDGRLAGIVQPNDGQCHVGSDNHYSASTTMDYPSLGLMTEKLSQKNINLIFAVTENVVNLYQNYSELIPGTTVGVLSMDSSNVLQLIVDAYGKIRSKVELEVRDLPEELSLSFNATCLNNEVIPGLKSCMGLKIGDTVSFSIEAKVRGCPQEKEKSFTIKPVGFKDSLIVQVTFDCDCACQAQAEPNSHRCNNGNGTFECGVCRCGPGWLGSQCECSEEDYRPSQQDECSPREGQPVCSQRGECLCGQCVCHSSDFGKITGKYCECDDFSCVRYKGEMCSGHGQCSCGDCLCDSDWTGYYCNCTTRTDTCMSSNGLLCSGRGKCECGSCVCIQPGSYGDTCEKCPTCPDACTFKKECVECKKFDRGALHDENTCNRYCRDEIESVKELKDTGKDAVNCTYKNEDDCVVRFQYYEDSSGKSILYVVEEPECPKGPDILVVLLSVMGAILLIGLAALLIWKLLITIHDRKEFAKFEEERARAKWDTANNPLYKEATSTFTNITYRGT

- IC50: 3.12 µM
Structure (SMILES): CCCC(=O)NC(Cc1ccc2cc(OCc3ccc(C(=N)N)cc3)ccc2c1)C(=O)O (stereo not shown) [ND-1, 2-butyramido-3-(6-((4-carbamimidoylbenzyl)oxy)naphthalen-2-yl)propanoic acid]
